Measurements from PMC11457865, “The HIV latency reversing agent HODHBt inhibits the phosphatases PTPN1 and PTPN2” (JCI Insight, 2024).

Legend:
[1] = target: T1, PTPN2 (TC-PTP) (Homo sapiens, UniProt P17706); test: fluorogenic phosphatase assay with Lineweaver-Burk kinetics; also CETSA on purified catalytic domain (destabilization), CD4 T cell lysates, and TPP in live PBMCs and K562 cells; type: biochemical
T1 construct: catalytic domain (recombinant GST-tag TC-PTP, BPS Bioscience 30013)
T1 sequence (P17706 1-317 limits assumed): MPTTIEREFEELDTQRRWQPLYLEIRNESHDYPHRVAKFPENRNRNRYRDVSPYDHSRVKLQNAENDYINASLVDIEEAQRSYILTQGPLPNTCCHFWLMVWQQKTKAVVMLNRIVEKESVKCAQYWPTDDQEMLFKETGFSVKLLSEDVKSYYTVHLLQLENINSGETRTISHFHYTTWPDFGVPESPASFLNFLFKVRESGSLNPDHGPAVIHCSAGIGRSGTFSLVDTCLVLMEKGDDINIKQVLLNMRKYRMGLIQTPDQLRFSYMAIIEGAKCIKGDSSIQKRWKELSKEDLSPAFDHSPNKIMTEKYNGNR

[2] = target: T2, PTPN1 (PTP1B) (Homo sapiens, UniProt P18031); test: fluorogenic phosphatase assay with Lineweaver-Burk kinetics; also CETSA on purified catalytic domain, CD4 T cell lysates, and TPP in live PBMCs and K562 cells; type: biochemical
T2 construct: catalytic domain (fluorogenic PTP1B catalytic domain assay kit, BPS Bioscience 79764; purified catalytic domain 1-301 for CETSA)
T2 sequence (P18031 1-301): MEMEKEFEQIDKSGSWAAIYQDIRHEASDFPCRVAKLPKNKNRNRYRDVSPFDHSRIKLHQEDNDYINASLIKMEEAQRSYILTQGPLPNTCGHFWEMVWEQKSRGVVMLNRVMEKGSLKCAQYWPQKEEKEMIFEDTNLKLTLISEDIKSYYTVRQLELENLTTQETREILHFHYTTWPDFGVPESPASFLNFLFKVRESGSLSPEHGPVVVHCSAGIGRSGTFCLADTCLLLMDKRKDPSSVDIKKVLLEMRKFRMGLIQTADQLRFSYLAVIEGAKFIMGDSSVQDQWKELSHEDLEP

IC50 [1]: 544 µM | IC50 [2]: 601 µM
Structure (SMILES): O=c1c2ccccc2nnn1O [HODHBt, 3-Hydroxy-1,2,3-benzotriazin-4(3H)-one]
